According to US20230265425A1, “lncRNA-REGULATED GENE EXPRESSION SYSTEM” (MEMORIAL SLOAN KETTERING CANCER CENTER, priority 2020, published 2023):
Read-outs that look alike come from different tables or passages of the source.

Columns and labels:
Pho1 acid phosphatase = experiment: Acid phosphatase activity assay of plasmid-bearing pho4Δ pho1Δ cells; settings: for Pho1 activity, % of the level attained with 15 μM thiamine: pTIN-pho1 cells
Description: Acid phosphatase activity assay. Aliquots of exponentially growing cultures were harvested, washed with water, and re-suspended in water. To quantify acid phosphatase activity, reaction mixtures (200 μl) containing 100 mM sodium acetate (pH 4.2), 10 mM p-nitrophenyl phosphate (NEB), and cells (ranging from 0.01 to 0.1 A600 units) were incubated for 5 min at 30° C. The reactions were quenched by addition of 1 ml of 1 M sodium carbonate; the cells were removed by centrifugation and the absorbance of the supernatant was measured at 410 nm. Acid phosphatase activity is expressed as the ratio of A410 (p-nitrophenol production) to A600 (cells). The data are averages (±SEM) of at least three assays using cells from three independent cultures.
To assay the activity of this promoter system, pho1 was used as the reporter gene driven by the tgp1 promoter (FIG. 1A). Cell surface-associated Pho1 activity is readily assayable colorimetrically via the conversion ofp-nitrophenylphosphate to p-nitrophenol. The pho1 gene was cloned downstream of the tgp1 5′ UTR in the pTIN vector with its native 3′ flanking DNA to yield the pTIN-pho1 plasmid (FIG. 1A). To test background acid phosphatase levels, a promoter-less pTIN pho1 vector was constructed that lacked the DNA segment spanning the regulatory nmt1-promoternc·tgp1·tgp1 promoter region as well as the tgp1 5′ UTR and only contained the pho1 ORF. These plasmids were introduced into a strain in which the chromosomal pho1 and pho4 genes encoding the cell-surface acid phosphatases Pho1 and Pho4 were deleted. Plasmid-bearing pho1Δ pho4Δ cells were grown to mid-log phase in Leu^− PMG medium without thiamine and subsequently diluted and grown in Leu^− PMG medium with or without 15 μM thiamine. Pho1 acid phosphatase activity was measured by incubating dilutions of cells with p-nitrophenylphosphate and measuring its conversion to p-nitrophenol for 5 min at 30° C. The amount of product formed (within the linear range of detection) was normalized to cell density and is plotted on the y-axis in FIG. 1B.

pho1 mRNA = experiment: microbe, parasite or virus in culture; settings: for fold induction at 15 µM: Schizosaccharomyces pombe
Description: Total RNA prepared from harvested samples was analyzed by reverse transcription primer extension using a mixture of radiolabeled primers complementary to the pho1 (top panel) or the act1 (bottom panel) mRNAs. The reaction products were resolved by denaturing urea-PAGE and visualized by autoradiography. The images shown in the top and bottom panels are from a single exposure of one gel. For conciseness of the figure, the intervening lanes of the gel were cropped (represented by the thin line separating the 3 and 10-hour samples). The positions and sizes (in nucleotides) of DNA markers are indicated on the left. Fold-induction reflects the ratio of the act1-normalizedpho1 signal at the indicated time to time-0.
RNA analysis. Total RNA was extracted via the hot phenol method (Köhrer K. and Domdey H., Method Enzymol: 398-405 (1991), which is hereby incorporated by reference) from 3 A600 units of harvested yeast cells. For analysis of specific transcripts by primer extension, aliquots (5 μg) of total RNA were templated for M-MuLV reverse transcriptase-catalyzed extensions of 5′ 32P-labeled oligodeoxynucleotide primers complementary to the phot and actl mRNAs in one reaction mix. The primer sequence for act1 was, 5′-[…] (SEQ ID NO: 12), and for pho1, 5′-[…] (SEQ ID NO: 13). The primer extension reactions were performed as described by Schwer B., et al., Nucleic Acids Res 26: 2050-2057 (1998), which is hereby incorporated by reference, and the products were analyzed by electrophoresis of the reaction mixtures through a 22-cm 8% polyacrylamide gel containing 7 M urea in 80 mM Tris-borate, 1.2 mM EDTA. The ^32P-labeled primer extension products were visualized by autoradiography of the dried gel. Quantification of pho1 and act1 mRNA levels was done by scanning the dried gel with a phosphorimager and analyzing the data in ImageQuant software.
Pho1 acid phosphatase activity in pho1Δ pho4Δ A cells bearing the pTIN pho1 plasmid was determined as a function of time after addition of thiamine (FIG. 2A). […] To gauge the level of phol mRNA, primer extension analysis using a pho1-specific radiolabeled primer for reverse-transcription was used, in parallel with an actin gene-specific primer as a control.

Cc1ncc(C[n+]2csc(CCO)c2C)c(N)n1 [thiamine]
EC50 (Pho1 acid phosphatase; Schizosaccharomyces pombe, read-out: dose of half maximal response (EC50) of Pho1 activity): 69 ± 5 nM
fold induction at 15 µM (Pho1 acid phosphatase; Schizosaccharomyces pombe, read-out: fold induction of Pho1 activity): 59
rate of Pho1 activity increase between 7 and 11 hours, % of the initial rate (1 to 7 hours) (Pho1 acid phosphatase; pTIN pho1 cells after addition of 15 μM thiamine): 58%
fold increase in acid phosphatase activity (Pho1 acid phosphatase; pTIN pho1 cells, 15 μM thiamine vs thiamine-free medium, 21 hours): 58 fold
fold increase in Pho1 level over the uninduced state (Pho1 acid phosphatase; pTIN pho1 cells, 23 hours after addition of 15 μM thiamine): 53 fold
Pho1 activity, % of the level attained with 15 μM thiamine (Pho1 acid phosphatase; 0.01 μM thiamine): 8%
Pho1 activity, % of the level attained with 15 μM thiamine (Pho1 acid phosphatase; 0.025 μM thiamine): 16%
Pho1 activity, % of the level attained with 15 μM thiamine (Pho1 acid phosphatase; 0.05 μM thiamine): 33%
Pho1 activity, % of the level attained with 15 μM thiamine (Pho1 acid phosphatase; 0.075 μM thiamine): 54%
Pho1 activity, % of the level attained with 15 μM thiamine (Pho1 acid phosphatase; 0.1 μM thiamine): 73%
Pho1 activity, % of the level attained with 15 μM thiamine (Pho1 acid phosphatase; 0.3 μM thiamine): 93%
Pho1 activity, % of the level attained with 15 μM thiamine (Pho1 acid phosphatase; 3 μM thiamine): 96%
fold increase in Pho1 activity on addition of thiamine (Pho1 acid phosphatase; pho1Δ pho4Δ cells bearing pTIN7m pho1, 22 hours): 172 fold
thiamine concentration at which induction was saturated (Pho1 acid phosphatase; pho1Δ pho4Δ cells bearing pTIN-pho1): ≥ 0.3 µM
fold induction at 15 µM (pho1 mRNA; 0.5 h, read-out: pho1 mRNA fold induction (act1-normalized, vs time-0)): 25
fold induction at 15 µM (pho1 mRNA; 1 h, read-out: pho1 mRNA maximum fold induction): 61
transcriptional induction by the addition of thiamine (dynamic range of pTIN system) (pho1 mRNA; pTIN system): ≤ 60 fold
time after induction at which target mRNA levels reach peak (pho1 mRNA; pTIN system, thiamine induction): ≤ 1 h
pho1 mRNA level, fold higher than the uninduced state (pho1 mRNA; pTIN-pho1 cells, all times assayed after 1 hour): approximately 60 fold
